From the supplement of paper PMC10307832

How the values were obtained:
Assay in all cases: relative viability (nuclei count vs DMSO), 5 days (fraction); higher = more cells survive
[1] = compound: CC(C)N(CCCNC(=O)Nc1ccc(C(C)(C)C)cc1)C[C@H]1O[C@@H](n2ccc3c(N)ncnc32)[C@H](O)[C@@H]1O + Nc1ncn([C@H]2C[C@H](O)[C@@H](CO)O2)c(=O)n1 [Decitabine] (partner 2 µM)
Summary of the method: (§1)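 One day after seeding in 1536-well plates, lung cancer cell lines were dosed by pin tool. Dosing was either single-drug or a fixed anchor-drug dose plus five library-drug doses (not always all listed) in √10 steps. After 5 days, nuclei were stained in one fix-and-stain step and counted on 4× images, and relative viability is the nuclei count of treated wells over that of vehicle wells, given as the median of duplicate plates.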

[2] = compound: CC(C)N(CCCNC(=O)Nc1ccc(C(C)(C)C)cc1)C[C@H]1O[C@@H](n2ccc3c(N)ncnc32)[C@H](O)[C@@H]1O + O=C(c1cc(Cc2n[nH]c(=O)c3ccccc23)ccc1F)N1CCN(C(=O)C2CC2)CC1 [Olaparib] (partner 8 µM)
Summary of the method: as §1

[3] = compound: CC(C)=CC[C@@H](O)C1=CC(=O)c2c(O)ccc(O)c2C1=O [Shikonin] + CS(=O)(=O)CCNCc1ccc(-c2ccc3ncnc(Nc4ccc(OCc5cccc(F)c5)c(Cl)c4)c3c2)o1 [Lapatinib] (partner 2 µM)
Summary of the method: as §1

[4] = compound: CC(C)N(CCCNC(=O)Nc1ccc(C(C)(C)C)cc1)C[C@H]1O[C@@H](n2ccc3c(N)ncnc32)[C@H](O)[C@@H]1O + C[C@@H](Oc1cc(-c2cnn(C3CCNCC3)c2)cnc1N)c1c(Cl)ccc(F)c1Cl [Crizotinib] (partner 1 µM)
Summary of the method: as §1

Row | Cell Line | relative viability ([1]; first compound 0.08 µM) | relative viability ([1]; first compound 0.253 µM) | relative viability ([1]; first compound 0.8 µM) | relative viability ([1]; first compound 2.53 µM) | relative viability ([1]; first compound 8 µM) | relative viability ([2]; first compound 0.08 µM) | relative viability ([2]; first compound 0.253 µM) | relative viability ([2]; first compound 0.8 µM) | relative viability ([2]; first compound 2.53 µM) | relative viability ([2]; first compound 8 µM) | relative viability ([3]; first compound 0.01 µM) | relative viability ([3]; first compound 0.1 µM) | relative viability ([3]; first compound 0.3162 µM) | relative viability ([3]; first compound 1 µM) | relative viability ([4]; first compound 0.08 µM) | relative viability ([4]; first compound 0.253 µM) | relative viability ([4]; first compound 0.8 µM) | relative viability ([4]; first compound 2.53 µM) | relative viability ([4]; first compound 8 µM)
1 | HCC-78 | 0.783 | 0.667 | 0.667 | 0.707 | 0.777 | 0.885 | 0.734 | 0.691 | 0.792 | 0.804 | 0.778 | 1.07 | 0.705 | 1.06 | 0.312 | 0.304 | 0.329 | 0.374 | 0.34
2 | HCC-366 | 0.359 | 0.335 | 0.317 | 0.294 | 0.352 | 0.336 | 0.428 | 0.328 | 0.292 | 0.281 | 1.34 | 1.24 | 1.11 | 1.03 | 0.375 | 0.545 | 0.654 | 0.526 | 0.478
3 | HCC-827 | 0.322 | 0.325 | 0.315 | 0.304 | 0.38 | 0.63 | 0.706 | 0.562 | 0.616 | 0.488 | 0.166 | 0.17 | 0.191 | 0.19 | 0.883 | 0.952 |  | 0.949 | 0.881
4 | HOP-62 | 0.225 | 0.207 | 0.21 | 0.195 | 0.198 | 0.242 | 0.642 | 0.261 | 0.347 | 0.314 | 1.04 | 1.13 | 0.908 | 1.03 | 0.926 | 0.982 | 0.882 | 0.748 | 0.915
5 | IA-LM |  |  |  |  |  | 0.776 | 0.956 | 0.937 | 0.931 | 0.686 | 1.11 |  | 0.81 | 0.679 | 0.868 | 0.747 | 0.84 | 0.939 | 0.644
6 | LC-2-ad | 0.776 | 0.857 | 0.688 | 0.728 | 0.768 | 0.67 | 0.717 | 0.715 | 0.699 | 0.626 | 0.798 | 1.38 | 1.04 | 0.965 | 0.442 | 0.506 | 0.444 | 0.445 | 0.407
7 | LCLC-97TM1 | 0.215 | 0.305 | 0.243 | 0.242 | 0.194 | 0.343 | 0.318 | 0.205 | 0.319 | 0.294 | 1.28 | 0.998 | 1.09 | 0.921 | 0.405 |  | 0.37 | 0.344 | 0.265
8 | LCLC-103H | 0.688 | 0.719 | 0.666 | 0.716 | 0.68 | 0.734 | 0.697 | 0.699 | 0.77 | 0.775 |  |  |  |  | 0.946 | 0.93 | 0.914 | 1 | 0.872
9 | LK-2 | 0.308 | 0.293 | 0.388 | 0.325 | 0.22 | 0.713 | 0.544 | 0.771 | 0.632 | 0.82 | 1.26 | 1.06 | 1.22 | 1.06 | 0.269 | 0.232 | 0.217 | 0.261 | 0.229
10 | LOU-NH91 | 0.757 | 0.815 |  | 0.858 | 0.793 | 0.886 | 0.86 |  | 0.984 | 0.899 | 0.802 | 0.839 | 0.811 | 0.823 | 0.755 | 0.735 |  | 0.7 | 0.721
11 | LU99A | 0.802 | 0.92 | 0.895 | 0.919 | 0.991 | 0.322 | 0.252 | 0.264 | 0.275 | 0.237 | 1.1 | 1.32 | 0.881 | 0.891 | 0.661 | 0.571 | 0.513 | 0.524 | 0.498
12 | NCI-H441 | 0.278 | 0.251 |  | 0.218 | 0.252 | 0.558 | 0.632 |  | 0.544 | 0.573 |  |  |  |  | 0.815 | 0.872 | 1.09 | 0.714 | 0.673
13 | NCI-H522 | 0.64 | 0.737 | 0.71 | 0.729 | 0.696 | 0.754 | 0.636 | 0.583 | 0.623 | 0.732 |  |  |  |  |  |  |  |  | 
14 | NCI-H1299 |  |  |  |  |  | 1.03 | 0.926 | 1 | 0.96 | 0.923 | 1.01 | 1.09 | 0.986 | 0.936 | 0.927 | 0.941 | 0.946 | 0.99 | 0.9
15 | NCI-H1395 | 0.711 | 0.704 | 0.76 | 0.748 | 0.662 | 0.496 | 0.443 | 0.405 | 0.464 | 0.438 | 0.924 | 1.26 | 0.923 | 0.895 |  |  |  |  | 
16 | NCI-H1563 |  |  |  |  |  |  |  |  |  |  | 0.87 | 1.08 | 0.923 | 0.779 | 0.813 | 0.963 | 0.804 | 0.812 | 0.82
17 | NCI-H1648 | 0.494 | 0.464 | 0.446 | 0.398 | 0.548 | 0.866 | 1 | 1.03 | 0.909 | 0.826 |  |  |  |  |  |  |  |  | 
18 | NCI-H1703 |  |  |  |  |  | 0.52 | 0.446 |  | 0.571 | 0.349 | 1.15 | 1.33 | 1.15 | 0.647 | 0.635 | 0.61 | 0.685 | 0.647 | 0.491
19 | NCI-H1793 | 0.481 |  | 0.77 | 0.537 | 0.359 | 0.808 |  | 0.864 | 0.848 | 0.739 | 0.637 | 0.786 | 0.742 | 0.648 |  |  |  |  | 
20 | NCI-H2228 |  |  |  |  |  | 0.879 | 0.712 | 0.427 | 0.601 | 0.615 | 0.913 | 0.902 | 0.921 | 0.83 | 0.586 |  | 0.468 | 0.543 | 0.44
21 | NCI-H2342 | 0.667 | 0.649 | 0.655 | 0.815 | 0.713 | 0.4 | 0.463 | 0.419 | 0.431 | 0.444 |  |  |  |  |  |  |  |  | 
22 | SW 900 | 0.387 | 0.43 |  | 0.42 | 0.404 | 0.783 | 0.875 |  | 0.798 | 0.772 |  |  |  |  |  |  |  |  | 
